Reference: paper PMC10927086, “Effects of structurally distinct human HDAC6 and HDAC6/HDAC8 inhibitors against S. mansoni larval and adult worm stages” (PLOS Neglected Tropical Diseases, 2024)
Like-named read-outs stand apart in the source and are kept apart here.

Assays:
[1] = system: S. mansoni eggs laid by worm pairs; assay: Egg counts and egg maturation staging (Vogel and Prata) in vitro; type: cell-based, Schistosoma mansoni; conditions: for percent of eggs that are viable at the given maturation stage at 20 µM / percent of eggs that are viable at the given maturation stage at 50 µM: Schistosoma mansoni
Source text: The eggs produced by worm pairs in vitro were counted at day 3 upon treatment using an inverted Leica DM IL microscope (Leica Microsystems, Wetzlar, Germany). Images were captured with a BX41 Olympus (Olympus, Tokyo, Japan) microscope and a brightfield objective 10× served by an Olympus DP23 microscope digital camera and visualized using “CellSens Entry” software (version 3.1.1). Egg maturation morphological score was assigned based on the Vogel and Prata’s staging system of egg maturation previously reported.
Therefore at 72 h upon worm pairs treatment the eggs were counted and classified by microscopic observation according to the Vogel and Prata staging system of egg maturation and grouped as immature (stages I and II), intermediate/developed (stages III–V), viable or damaged eggs.
Panel B. Histograms represent the percentages of eggs at different maturation stages +/- SEM counted at 72 h after treatment; 5–6 microscopy images of at least 3 independent experiments were analyzed. Filled red triangles indicate viable eggs at stages I–II (immature); empty red triangles indicate damaged/morphological abnormal eggs at stages I–II (immature); filled red arrows indicate viable eggs at stages III–V (intermediate/developed); empty red arrows indicate damaged/morphological abnormal eggs at stages III-V; ef, egg fragments; sp, sperm cells; oc, oocyte. Scale Bars = 200 μm.

[2] = system: adult S. mansoni worm pairs (ovary, ootype, vitellarium, gut); assay: Carmine-red staining and confocal laser scanning microscopy of adult worm pairs; type: cell-based, Schistosoma mansoni; conditions: 72 h
Method: Carmine Red staining was performed as previously described. […] Images were collected as a single stack.
To characterize the phenotypic alterations induced by compound treatment in more detail, carmine-red staining, followed by confocal laser scanning microscopy (CLSM) analysis was performed (Fig 5). Sublethal doses of compounds were chosen to preserve the overall parasite viability and pairing. For each compound, 3–5 couples in two independent experiments were analyzed and images of ootype, ovary, vitellarium, testis, gut, and parenchyma were recorded. […] The vitellarium retains a preserved structure in all analyzed samples. […] Accumulation of carmine-red positive particle aggregates was also present in the lumen of the NF2839-treated male worms (Fig 5).
Fig 5 Confocal microscopy of carmine-red stained adult worm pairs treated with quinolone-based HDAC inhibitors. […] The ovary, ootype and gut are shown. Immature oocytes (io), mature oocytes (mo), ootype (ot) and gastrodermis (ga) are labeled. In the Figure, red filled triangles indicate degenerated mo; empty red triangles indicate egg fragments in the ootypes; asterisks indicate deformed egg in the ootype and carmine red aggregates in the gut lumen, filled red arrows indicate the ga in the gut. Scale bars: 50 μm.

[3] = 72 h, NF2839 5 and 10 μM, NF2836 20 and 50 μM

For `Cn1c(=O)c(OCc2ccc(C(=O)NO)cc2)c(C2CCCCC2)c2ccccc21` [NF2836], the “% Stage I/II damaged” value ([1]; 20 µM, exp.1) was 97.1%, the “%Stage III/IV/V damaged” value ([1]; 20 µM, exp.1) was 0% and the “Stage I/II damaged counts” value ([1]; 20 µM, exp.1) was 608. For the same compound, the “Stage I/II viable (egg counts)” value ([1]; 20 µM, exp.1) was 18, the “Stage II/IV/V viable (egg counts)” value ([1]; 20 µM, exp.1) was 0 and the “Stage III/IV/V damaged (egg counts)” value ([1]; 20 µM, exp.1) was 0. The egg counts ([1]; 20 µM, exp.1) was 626, the “% Stage I/II damaged” value ([1]; 20 µM, exp.2) was 16.0% and the “%Stage III/IV/V damaged” value ([1]; 20 µM, exp.2) was 0%. The “Stage I/II damaged counts” value ([1]; 20 µM, exp.2) was 76, the “Stage I/II viable (egg counts)” value ([1]; 20 µM, exp.2) was 378 and the “Stage II/IV/V viable (egg counts)” value ([1]; 20 µM, exp.2) was 19. For the same compound, the “Stage III/IV/V damaged (egg counts)” value ([1]; 20 µM, exp.2) was 0, the “% Stage I/II damaged” value ([1]; 20 µM, exp.3) was 79.8% and the “%Stage III/IV/V damaged” value ([1]; 20 µM, exp.3) was 0%. The “Stage I/II damaged counts” value ([1]; 20 µM, exp.3) was 408, the “Stage I/II viable (egg counts)” value ([1]; 20 µM, exp.3) was 103 and the “Stage II/IV/V viable (egg counts)” value ([1]; 20 µM, exp.3) was 0. The “Stage III/IV/V damaged (egg counts)” value ([1]; 20 µM, exp.3) was 0, the egg counts ([1]; 20 µM, exp.3) was 511 and the “% Stage I/II damaged, Media” value ([1]; 20 µM, mean of experiments) was 64.3%. For the same compound, the “%Stage III/IV/V damaged, Media” value ([1]; 20 µM, mean of experiments) was 0%, the “% Stage I/II damaged” value ([1]; 50 µM, exp.1) was 99.8% and the “%Stage III/IV/V damaged” value ([1]; 50 µM, exp.1) was 0%. The “Stage I/II damaged counts” value ([1]; 50 µM, exp.1) was 448, the “Stage I/II viable (egg counts)” value ([1]; 50 µM, exp.1) was 1 and the egg counts ([1]; 50 µM, exp.1) was 449. The “% Stage I/II damaged” value ([1]; 50 µM, exp.2) was 92.6%, the “%Stage III/IV/V damaged” value ([1]; 50 µM, exp.2) was 0% and the “Stage I/II damaged counts” value ([1]; 50 µM, exp.2) was 287. For the same compound, the “Stage I/II viable (egg counts)” value ([1]; 50 µM, exp.2) was 23, the egg counts ([1]; 50 µM, exp.2) was 310 and the “% Stage I/II damaged, Media” value ([1]; 50 µM, mean of experiments) was 96.2%. The “%Stage III/IV/V damaged, Media” value ([1]; 50 µM, mean of experiments) was 0%, the “egg damage / viability” value [1, 3] was “eggs appeared seriously damaged and not viable” and the “egg maturation (Vogel and Prata staging)” value [1, 3] was “essentially all eggs were arrested in stage I/II”. For the same compound, the “number of eggs laid by worm pairs” value [1, 3] was “did not observe a decrease in the number of eggs”, the percent of eggs that are viable at the given maturation stage at 20 µM ([1]; 20 µM, exp.1, read-out: % Stage I/II viable) was 2.9% and the percent of eggs that are viable at the given maturation stage at 20 µM ([1]; 20 µM, exp.1, read-out: %Stage II/IV/V viable) was 0%. For the same compound, the percent of eggs that are viable at the given maturation stage at 20 µM ([1]; 20 µM, exp.2, read-out: % Stage I/II viable) was 79.6%, the percent of eggs that are viable at the given maturation stage at 20 µM ([1]; 20 µM, exp.2, read-out: %Stage II/IV/V viable) was 4% and the percent of eggs that are viable at the given maturation stage at 20 µM ([1]; 20 µM, exp.3, read-out: % Stage I/II viable) was 20.2%. The percent of eggs that are viable at the given maturation stage at 20 µM ([1]; 20 µM, exp.3, read-out: %Stage II/IV/V viable) was 0%, the percent of eggs that are viable at the given maturation stage at 20 µM ([1]; 20 µM, mean of experiments, read-out: % Stage I/II viable, Media) was 34.2% and the percent of eggs that are viable at the given maturation stage at 20 µM ([1]; 20 µM, mean of experiments, read-out: %Stage II/IV/V viable, Media) was 1.3%. For the same compound, the percent of eggs that are viable at the given maturation stage at 50 µM ([1]; 50 µM, exp.1, read-out: % Stage I/II viable) was 0.223%, the percent of eggs that are viable at the given maturation stage at 50 µM ([1]; 50 µM, exp.1, read-out: %Stage II/IV/V viable) was 0% and the percent of eggs that are viable at the given maturation stage at 50 µM ([1]; 50 µM, exp.2, read-out: % Stage I/II viable) was 7.4%. The percent of eggs that are viable at the given maturation stage at 50 µM ([1]; 50 µM, exp.2, read-out: %Stage II/IV/V viable) was 0%, the percent of eggs that are viable at the given maturation stage at 50 µM ([1]; 50 µM, mean of experiments, read-out: % Stage I/II viable, Media) was 3.8% and the percent of eggs that are viable at the given maturation stage at 50 µM ([1]; 50 µM, mean of experiments, read-out: %Stage II/IV/V viable, Media) was 0%. The “samples with decrease of cellularity in the ovary mature compartment” value ([2]; 50 uM) was 5/11, the ootype content ([2]; higher concentration (NF2836 50 μM, NF2839 10 μM)) was “either an empty ootype or no properly developed eggs and/or egg fragments” and the gut morphology ([2]; higher concentration (NF2836 50 μM, NF2839 10 μM), all worms, in particular males) was “gut dilation with a dramatic decrease in the number of surface amplification and lumen epithelial thinning”. The “ootype containing damaged eggs” value ([2]; lower concentrations (NF2836 20 μM, NF2839 5 μM)) was 5/7 and the “overall morphology of the ovary” value ([2]; sublethal doses) was “seemed not to be affected”.
